Source: patent US4393178A, “Fast crystallizing polyester compositions” (priority 1979, dated 1983)
Where two headings read alike, the source gives them in different places.

Experiments:
[1] = Solubility parameter δ of the acid
[2] = ΔT = Tc(cooling) - Tn(heating), DSC; format: physicochemical
Protocol: An alternative method for assessing the effectiveness of nucleation of an additive is to compare the difference between the value of the crystallisation peak on cooling (Tc) with that on heating (Tn) for a composition containing an ionisable salt. The value obtained from this comparison, Tc(cooling) -Tn(heating) is termed ΔT. […] Samples of polyester together with 1% of the salt under test were mixed in a 2-roll mill at 270° C. for 5 minutes. The sample produced was pressed into 2 mm thick sheets at 270° C. for 3 minutes and then cooled to room temperature. 10 mg of the sample was placed in a capsule and rapidly heated to 290° C. After maintaining this temperature for 1 minute the capsule was quenched in water. The crystallisation peak temperatures on heating (Tn) and cooling (Tc) were determined using heating and cooling rates of 10° C./minute on a Perkin Elmer DSC 2 machine.

[3] = Degradation constant K (melt degradation performance); format: physicochemical
Protocol: (§1) The melt degradation performance is a measure of the extent of degradation under molten conditions. A convenient method of quantifying the performance is by measuring the "K value". A method for determining this value in the molten state using an Instron Capillary rheometer is given in a paper by J. Devaux et al in Makromol.
(§2) This method is carried out on samples prepared by reacting the salt with the polyester on a 2 roll-mill at a temperature above the melting point of the polyester for 5 minutes and then pressing the product obtained into a 2 mm thick sheet using the same temperature for 3 minutes before cooling to room temperature. The method is described for polyethylene terephthalate but can be readily adapted for other polyesters.
For polyethylene terephthalate the K value in the presence of salt should be less than 60.

[4] = water; cited from earlier work
[5] = Half-crystallisation time (t1/2), isothermal DSC; format: physicochemical
Protocol: A DSC 2 Perkin Elmer scanning calorimeter was used.
10 mg of the sample of polymer material are placed in a capsule and introduced into the apparatus, wherein the sample is quickly heated to a temperature of 290° C. at which it is maintained during 1 minute.
The molten polymer material is then very quickly cooled by means of liquid air (at a rate of 320° C. per minute) until the crystallisation temperature is reached.
The crystallisation isotherm is registered on a temperature-time graph and the peak appearing on the registered isotherm is taken as the half-crystallisation time (t1/2).

[6] = Crystallinity of injection moulded articles; format: physicochemical; settings: 0.5% salt, mould 120 °C, cycling time 12 seconds, based on heat of fusion 24 Cal/g
Protocol: The extruded product of Example 6 has been dried (120° C.) in a ventilated oven. The obtained pellets have been moulded by injection in a Buhler Rover 63 machine.
Different cycling times have been experimented.

[7] = End group determination, block copolymer; format: physicochemical; settings: 1% salt, 2-roll mill 270 °C 2 minutes
Protocol: The total number of end groups in the polyester were found by determining the intrinsic viscosity of the polyester and using the correlation between I.V. and number of end groups given in Transactions of the Faraday Societ 1961, Volume 57, pages 150 to 159. The numbers of hydroxyl and carboxyl groups were also determined according to the procedure given in this paper.
(§3) The polymer used in Example 16 and 1% of the disodium salt of o-hydroxy benzoic acid were compounded on a 2-roll mill at 270° C. for 2 minutes. […] (measured at a heating rate of 10° C./minute).

[8] = Crystallisation peak temperature on heating (Tn), DSC; format: physicochemical; settings: 1% salt deposited from solution on PET, pressed 280 °C 1 minute; heating rate 16 °C/minute; listed as disodium salt of o-hydroxy benzoic acid
Protocol: In one such DSC technique the crystallisation peak temperature difference, Tn(composition)--Tn(polyester) is determined by measuring the crystallisation peak temperatures on heating for the composition in comparison with the polyester of the composition not containing the ionisable salt. The detailed procedure is as follows. Compositions were prepared from the polyester and the additive by mixing on a 2-roll mill at 300° C. for 2 minutes. The sample was taken from the mill and pressed into a film in a compression moulding machine. 10 mg samples of the composition were placed in a capsule, rapidly heated to 290° C. and maintained at that temperature for 1 minute. The capsule was then dropped into water to quench the polymer and prevent crystallisation. The sample was then placed in a Perkin Elmer DSC 2 machine and heated at a rate of 10° C./minute until reaching a temperature of 290° C. The crystallisation peak temperature observed on this heating cycle is recorded and compared with the value for the polyester not containing the additive.
Samples of polyethylene terephthalate (I.V. =0.73) containing 1% of the salts listed in Table 2 were prepared by compounding at 300° C. on a 2-roll mill for 2 minutes. The samples were evaluated to determine Tn(composition-Tn(polyester), the total number of end groups, the number of carboxylate groups and the number of hydroxyl and carboxyl groups.
The salts listed in Table 3 were deposited from solution on the surface of polyethylene terephthalate chip to give a concentration of 1% by weight of salt. The product was dried under vcuum at 96° C. for 3 hours. The compositions were pressed into film using a temperature of 280° C. for 1 minute. The DSC measurements were made after quenching from the melt to prevent crystallisation and using a heating rate of 16° C./minute.
1% by weight of the sodium salt of saccharin was deposited on the surface of granules of a polyethylene terephthalate homopolymer of I.V. =0.73 by evaporating an aqueous solution of the salt from the granules by drying at 96° C. under vacuum for 3 hours. The granules obtained were compression moulded into film by pressing at 280° C. for 60 second. The film was used for measurements of Tn at a heating rate of 16° C./minute.
The effect of the salts listed in Table 4 was determined by taking granules of a polymer of poly(ethylene terephthalate) homopolymer having an intrinsic viscosity of 0.73 and evaporating a solution of the salt in methanol or water from the surface of the granules by drying at 96° C. under vacuum for 3 hours. The proportions of polymer and solution used were such as to give a concentration of 1% of salt by weight of the final dry composition. The granules obtained were compression-moulded into film at 280° C. for various periods of time. The film was used for measurement of Tn as hereinbefore described.
Two samples of polyethylene terephthalate chip (I.V. =0.73) were coated from solution with 1% of the sodium salt of o-hydroxybenzoic acid and the disodium salt of the same acid respectively. After drying for 3 hours in a vacuum oven at 95° C. films were prepared by pressing the products for 1 minute at 280° C.

[9] = Degradation constant K (melt degradation performance); format: physicochemical; settings: 1% salt deposited from solution on PET (Examples 13-15); listed as disodium salt of o-hydroxy benzoic acid
[10] = Degradation constant K, block copolymer; format: physicochemical; settings: 1% salt, 2-roll mill 270 °C 2 minutes, compared with polyester itself
Protocol: as §1, with “Makromol. Chem. 179, 2201-2209 (1978).” for “Makromol.”
as §2, §3

[11] = Crystallisation peak temperature on heating (Tn), DSC, block copolymer; format: physicochemical; settings: 1% salt, 2-roll mill 270 °C 2 minutes, block copolymer; heating rate 10 °C/minute
Protocol: A block copolymer containing 5% by weight of polyethylene glycol units of molecular weight 1540 in chip form was blended with a solution of the sodium salt of o-chlorobenzoic acid to give a salt concentration of 1% by weight of the polyester. Samples were prepared for DSC analysis using the procedure of Example 15.
as §3

Structure (SMILES): O=C([O-])c1ccc([N+](=O)[O-])cc1Cl.[Na+]
- δ × pKH.sbsb.2O [1]: 26
- ΔT [2]: 103
- K [3]: 39
- pKH.sbsb.2O [4]: 2
- t1/2 (sec) 110° C. [5]: 90 s
- t1/2 (sec) 120° C. [5]: 48 s
- crystallinity [6]: 40%

Structure (SMILES): O=C(O)c1ccccc1O [ortho-ONa-benzoic acid]
- total number of end groups determined from the intrinsic viscosity [7]: 137
- Tn (16° C./min) [8]: 108 °C
- ΔT ([2]; 1% salt in PET, 2-roll mill 270 °C 5 min, 10 °C/minute): 110 °C
- K [9]: 24
- K ([3]; 1% salt in PET, 2-roll mill 270 °C 5 min, molten state 290 °C): 24
- K value [10]: less than that for the polyester itself
- Tn [11]: 100 °C
- t1/2 (sec) 110° C. [5]: 70 s
- t1/2 (sec) 120° C. [5]: 49 s
